pIC50: −log10 of the molar value. Values after ≈ are worked out from the molar mass of the structure shown. Like-named read-outs stand apart in the source and are kept apart here.
Key:
esterase = experiment: Esterase-catalysed conversion of 1-t to 3 (analytical HPLC); assay type: biochemical, porcine
[1] = 1.0 wt %, pH 7.4
Experimental: Peptides 1-t/1 were dissolved into distilled water, and the pH of the solution was adjusted carefully by adding 1M NaOH, and this was monitored with pH paper. After the pH of the solution reached 7.4, extra distilled water was added to make the final concentration, followed by the addition of esterase to induce enzymatic gelation.
To elucidate the enzyme-catalyzed self-assembly to form supramolecular nanofibrils inside cells after cellular uptake illustrated in FIG. 2A, the enzymatic transformation of 1-t (or 1) to 3 and the subsequent self-assembly of 3 at the concentration of 1.0 wt % was first examined. To study the enzymatic hydrogelation process of 1-t, analytical HPLC was used to evaluate the rate of enzymatic transformation and transmission electron microscopy (TEM) to examine the self-assembly.

HeLa cells [2] = test system: HeLa cells
Experimental: The HeLa cell line CCL-2™ was purchased from the American Type Culture Collection (ATCC, Manassas, Va., USA).
The following formula was used to calculate the intracellular concentration of the peptides.
Intracellular concentration=(c*300 uL)/(cell number*4*10^−9 cm^3)
where c=(fluorescence−15406.76945)/74174.36908. An average size for the common cells used in cell culture (HeLa) is 15-20 microns in diameter for a suspended cell (volume 4/3πr^3=4000 μm^3 or 4×10^−9 cm^3) (Moran et al., Cell 141:1262 (2010), which is hereby incorporated by reference in its entirety). Methanol was used to break the cell membrane and fully dissolve compounds 1-t, 2-t, and 3.
To quantify the intracellular concentration of the D-peptide derivatives, the procedure illustrated in FIG. 9A was used to determine the cellular uptake of 1-t, 1, and 2-t after treating HeLa cells with these molecules, respectively. […] The “uptake concentration (Cu)” of 1-t or 1 is the sum of 3 and 1-t (or 1) inside the cells.

HeLa cells [3] = settings: 200 μM, 24 hours
HeLa cells [4] = experiment: MTT cell viability, HeLa; assay type: cell-based; settings: third day (72 h)
Experimental: D-7 and D-10 (FIG. 12A), the enantiomers of L-7 and L-10, were prepared as described in Example 3. HeLa and SKOV3 cells were used in an MTT assay for assessing cytotoxicity of the peptides against these cancer cell lines.

A2780 cells = experiment: MTT cell viability, A2780; assay type: cell-based; settings: third day (72 h)
SKOV3 cells [5] = experiment: LC-MS of cell lysates and culture medium, SKOV3; assay type: cell-based
Experimental: After confirming that CES converts the precursor L-10 or D-10 into the hydrogelator L-12 or D-12, the stability of the precursors (L-10 or D-10) when incubated with the ovarian cancer cells was determined. After culturing the precursors with SKOV3 or A2780cis cells at 37° C. for 4 hours, the cell lysates and culture medium were collected for liquid chromatography-mass spectrometry (LC-MS) analysis and the intracellular concentrations of the precursors, the hydrogelators, and the relevant proteolyzed products were determined. After incubation with SKOV3 or A2780cis cells for 4 hours, more than 85% of the precursors (L-10 or D-10) turned into the corresponding hydrogelators (L-12 or D-12; see Table 1 below).

PC-12 cells [6] = experiment: MTT cell viability, PC-12 neuronal cells; assay type: cell-based, rat
Experimental: (§1) The cells were seeded in exponential growth phase in a 96 well plate at a concentration of 1×10^4 cell/well with 100 μL of culture medium. Cells were allowed to attach for 24 hours at 37° C., 5% CO2 and then the culture medium was removed with the help of vacuum pump. Culture medium containing the precursors in gradient concentrations was added to each well (0 μM as control). 10 μL of 5 mg/mL MTT ((3-(4,5-Dimethylthiazol-2-yl)-2,5-diphenyltetrazolium bromide) was added to each well after 24 hours, 48 hours, and 72 hours incubation. After 4 hours incubation of the plated cells in dark place, 100 μL 10% SDS with 0.01 M HCl was added to each well to dissolve the purple formazan and to stop the reduction reaction. 24 hours later, the absorbance of the solution at 595 nm was finally measured with a DTX 880 Multimode Detector.

HCC1937 cells = experiment: MTT cell viability, HCC1937; assay type: cell-based; settings: third day (72 h)
MCF-7 cells = experiment: MTT cell viability, MCF-7; assay type: cell-based; settings: third day (72 h)
Experimental: as §1

Saos-2 cells = experiment: MTT cell viability, Saos-2; assay type: cell-based; settings: third day (72 h)
Experimental: as §1

MES-SA cells = experiment: MTT cell viability, MES-SA; assay type: cell-based; settings: third day (72 h)
Experimental: as §1

MES-SA/D×5 cells = experiment: MTT cell viability, MES-SA/D×5; assay type: cell-based; settings: third day (72 h)
Experimental: as §1

A375 cells = experiment: MTT cell viability, A375; assay type: cell-based; settings: third day (72 h)
Experimental: as §1

HepG2 cells = experiment: MTT cell viability, HepG2; assay type: cell-based; settings: third day (72 h)
Experimental: as §1

U87MG cells = experiment: MTT cell viability, U87MG; assay type: cell-based
Experimental: as §1

T98G cells = experiment: MTT cell viability, T98G; assay type: cell-based
Experimental: as §1

[7] = test system: co-cultured HS-5 and A2780cis cells; experiment: Cell viability of co-cultured HS-5 and A2780cis cells; assay type: cell-based; settings: L-10 73 μg/mL, third day
Experimental: 5×10^3 of SKOV3 cells (or A2780cis) and 5×10^3 HS-5 cells per well were seeded together and co-cultured in DMEM medium. Based on the results in FIG. 22, the concentrations of L-10 and D-10 at 73 and 37 μg/mL, respectively, were chosen. […] The inhibitory activities of L-10 and D-10 towards the co-culture agree well with their cytotoxicity against A2780cis, SKOV3, and H-5 cells. […] For example, on the first day, the cell viabilities of co-cultured HS-5 and SKOV3 cells and co-cultured HS-5 and A2780cis cells treated by D-10 (37 μg/mL) were 79% and 80%, respectively. While on the third day, the cell viabilities dropped to 44% and 57%, respectively. […] Contrary to the case of D-10, the efficacies of L-10 were almost the same between day two and day three (FIG. 25A), which agreed with the lower in vivo stability of L-10 than that of D-10.

SKOV3 cells [8] = test system: SKOV3 cells
Experimental: SKOV3 cells were seeded in exponential growth phase in a 96 well plate at a concentration of 1×10^4 cell/well with 100 μL of McCoy's 5A medium modified supplemented with 10% fetal bovine serum (FBS), 100 U/mL penicillin and 100 μg/ml streptomycin. The cells were allowed to attach to the wells for 24 hours at 37° C., 5% CO2. The culture medium was removed and 100 μL culture medium containing compounds (immediately diluted from fresh prepared stock solution of 10 mM) at gradient concentrations (0 μM as the control) was placed into each well. McCoy's 5A medium modified was regarded as blank. After culturing at 37° C., 5% CO2 for 24 hours, 48 hours, and 72 hours, 10 μL of 5 mg/mL MTT (3-(4,5-Dimethylthiazol-2-yl)-2,5-diphenyltetrazolium bromide) was added to each well, and the plated cells were incubated in dark place for 4 hours. 100 μL 10% SDS with 0.01 M HCl was added to each well to stop the reduction reaction and to dissolve the purple formazan. After incubation of the cells at 37° C. for overnight, the OD at 595 nm of the solution was measured in a microplate reader.
as §1

HS-5 cells [9] = settings: 72 h
Experimental: as §1

in vitro = settings: human
Experimental: as §1

HS-5 cells [10] = experiment: MTT cell viability, HS-5 stromal cells
Experimental: as §1

[11] = Systemic toxicity after intravenous injection in mice; settings: 5 to 20 mg/kg, after 7 days
SKOV3 cells [12] = settings: read-out: IC50 of cisplatin; literature value (Oumzil et al.) used as comparison for SKOV3 inhibition; cited from earlier work
HS-5 cells [13] = settings: literature (Mendonca et al.); cited from earlier work
PC-12 cells [14] = settings: literature (Mendonca et al.); cited from earlier work
[15] = 200 μM in culture medium, 24 hours
[16] = SKOV3 cell lysates, 4 hours, 37° C., 20 μm D-10 or 50 μm L-10

O=C(CCC(=O)OCCNC(=O)[C@@H](Cc1ccccc1)NC(=O)[C@@H](Cc1ccccc1)NC(=O)CCNc1ccc([N+](=O)[O-])c2nonc12)NCCS(=O)(=O)O [1-t]
1-t converted to 3 (HPLC) (esterase; 1-t 100 μM, esterase 1 U/mL, 24 hours): more than 50%
metabolised at 24 h, 1 wt % (esterase; pig, esterase from porcine liver, pH 7.4, 1-t 1.0 wt %, esterase 1 U/ml, 24 hours, read-out: 1-t converted to 3 (HPLC)): ~11%
metabolised at 1 min, 1 wt % (esterase; pig, esterase from porcine liver, 1-t 1.0 wt %, pH 7.4, esterase 1 U/ml, 1 min, read-out: 1-t converted to 3 (analytical HPLC)): 2.5%
solubility [1]: significantly enhanced the solubility
enhancement of cellular uptake compared with incubation concentration (HeLa cells [2]; 50 μM, 24 hours): about 3 fold
uptake concentration (Cu) / intracellular concentration (HeLa cells [2]; [15]): 1.6 mM
intracellular concentration after washing five times with PBS buffer (HeLa cells [2]; 200 μM, 24 hour incubation): 1.4 mM
uptake concentration relative to incubation (extracellular) concentration (HeLa cells [2]; 200 μM, 24 hours): 8 fold
Cu (HeLa cells [2]; 200 μM, 48 hours): 2.4 mM
enhancement of cellular uptake compared with incubation concentration (HeLa cells [2]; 200 μM, 48 hours): 12 fold
enhancement of cellular uptake compared with incubation concentration (HeLa cells [2]; 500 μM, 24 hours): ~4.5 fold
intracellular concentration (HeLa cells [2]; incubation medium 25 μM, 24 hours): 28 µM

O=C(CCC(=O)NCCS(=O)(=O)O)NCCNC(=O)[C@@H](Cc1ccccc1)NC(=O)[C@@H](Cc1ccccc1)NC(=O)CCNc1ccc([N+](=O)[O-])c2nonc12 [2-t]
Cu (HeLa cells [2]; [15]): 0.8 mM
uptake concentration (Cu) / intracellular concentration (HeLa cells [2]; [15]): 0.8 mM
intracellular concentration after first wash (HeLa cells [2]; 200 μM, 24 hour incubation): 0.6 mM
intracellular concentration after washing five times with PBS buffer (HeLa cells [2]; 200 μM, 24 hour incubation): 0.08 mM
decrease of intracellular concentration by each wash (HeLa cells [2]; 200 μM, 24 hour incubation, PBS wash): about 25%
uptake concentration relative to incubation (extracellular) concentration (HeLa cells [2]; 200 μM, 24 hours): 4 fold
stability inside cells (HeLa cells [3]): remained intact inside cells

O=C(CCC(=O)OCCNC(=O)[C@H](Cc1ccccc1)NC(=O)[C@H](Cc1ccccc1)NC(=O)Cc1ccc2ccccc2c1)NCCS(=O)(=O)O [L-10]
IC50, HeLa (HeLa cells [4]): 53 µg/mL (≈ 72.5 µM)
IC50, A2780 (A2780 cells): 49 µg/mL (≈ 67 µM)
cumulative intracellular concentration of precursor and hydrogelator relative to incubation concentration (SKOV3 cells [5]; 4 hours incubation): about 10 fold
Ratio of hydrogelator to precursor after 4 hours (SKOV3 cells [5]; SKOV3 cell lysates, 20 μm D-10 or 50 μm L-10): 6.95
Hydrogelator (12) intracellular concentration (SKOV3 cells [5]; [16]): 431 μm
Precursor (10) intracellular concentration (SKOV3 cells [5]; [16]): 62 μm
inhibition of PC-12 cells (PC-12 cells [6]; 20 μM (D-10) and 50 μM (L-10)): hardly inhibited
IC50, PC-12 (PC-12 cells [6]; third day (72 h)): above 73 μg/mL
IC50, HCC1937 (HCC1937 cells): 29 µg/mL (≈ 39.7 µM)
IC50, MCF-7 (MCF-7 cells): 28 µg/mL (≈ 38.3 µM)
IC50, Saos-2 (Saos-2 cells): 80 µg/mL (≈ 109 µM)
IC50, MES-SA (MES-SA cells): 40 µg/mL (≈ 54.7 µM)
IC50, MES-SA/D×5 (MES-SA/D×5 cells): 322 µg/mL (≈ 441 µM)
IC50, A375 (A375 cells): 94 µg/mL (≈ 129 µM)
IC50, HepG2 (HepG2 cells): 97 µg/mL (≈ 133 µM)
cell viability of U87MG (U87MG cells; 365 μg/mL of L-10): about 70%
cytotoxicity toward U87MG (U87MG cells; at or below 146 μg/mL, 72 h): little cytotoxicity
cell viability of T98G (T98G cells; 365 μg/mL of L-10): ~60%
cytotoxicity toward T98G (T98G cells; at or below 146 μg/mL, 72 h): little cytotoxicity
inhibition of co-cultured HS-5 and A2780cis cells [7]: about 57%
IC50, SKOV3 (SKOV3 cells [8]; 72 h): 46 µg/mL (≈ 62.9 µM)
inhibition of SKOV3 cells by mixture with CP (SKOV3 cells [8]; 72 h, 37 μg/mL): ~87%
IC50, A2780cis (A2780cis cells; third day (72 h)): 39 µg/mL (≈ 53.4 µM)
IC50, HS-5 (HS-5 cells [9]): above 73 μg/mL
viability at 3 day, 73 μg/mL (in vitro): ~80%
inhibition of HS-5 cells (HS-5 cells [10]; 20 μM (D-10) and 50 μM (L-10)): hardly inhibited
effect on weight and organ index of mice [11]: hardly affected

N.N.[Cl][Pt][Cl] [cisplatin, reference compound]
inhibition of SKOV3 cells (SKOV3 cells [8]; 37 μg/mL, third day): 90%
inhibition of SKOV3 cells (SKOV3 cells [8]; CP 6 μg/mL alone, 72 hours): 48%
cell death of SKOV3 cells (SKOV3 cells [8]; CP 6 μg/mL alone, 72 hours (control compound experiment)): about 40%
inhibition of A2780cis cells (A2780cis cells; 37 μg/mL, third day): about 98%
pIC50 (SKOV3 cells [12]): 4.46
inhibition of HS-5 cells (HS-5 cells [13]): significantly inhibiting
inhibition of PC-12 cells (PC-12 cells [14]): significantly inhibiting
HS-5 cells killed / inhibited (HS-5 cells [10]; 37 μg/mL, third day): ~100%

O=C(O)CCC(=O)OCCNC(=O)[C@@H](Cc1ccccc1)NC(=O)[C@@H](Cc1ccccc1)NC(=O)CCNc1ccc([N+](=O)[O-])c2nonc12 [compound 1]
solubility [1]: less soluble than 1-t
uptake concentration (Cu) / intracellular concentration (HeLa cells [2]; [15]): hardly detected

Source: US20180037605A1, “SYNTHETIC PEPTIDES AND ENZYMATIC FORMATION OF INTRACELLULAR HYDROGELS” (BRANDEIS UNIVERSITY, priority 2015, published 2018)
